Data taken from US20260102377A1, “COMPOSITIONS AND METHODS FOR TREATING MYASTHENIA GRAVIS” (priority 2022, published 2026).
Entries after “also recorded” stand apart in the source; their conditions may differ. Read-outs that look alike come from different tables or passages of the source.

Tests used:
[1] = Phase I clinical trial Part A: pharmacokinetics; format: in vivo; conditions: human; for Cmax / half-life / AUC(0-inf): plasma; for AUC(0-inf): read-out: AUC0-infinity (Mean ± SD, h · ng/mL)
Tablet dissolution = format: physicochemical; conditions: after a maximum of 60 minutes; USP2 paddles 75 RPM, 900 ml dissolution media pH 6.8, 37° C.
Description: Tablet dissolution was determined as follows.
Dissolution Media pH 6.8 was prepared by dissolving 27.3 g Na2HPO4·2H2O and 4.9 g Citric Acid in 1 L Milli-Q water. The pH was measured and adjusted if necessary to pH 6.8.
900 mL of dissolution media pH 6.8 was accurately transferred into each dissolution vessel. The apparatus was assembled, and the dissolution media was heated to 37° C.±0.5° C. The T=0 point was extracted from each vessel prior to dropping the tablets into the dissolution vessels. One tablet was gently dropped into each dissolution vessel, and rotation of the paddle was immediately started. Samples were taken that the sample extraction timepoints and analysed using the HPLC method.

[2] = system: patients with myasthenia gravis; assay: Phase IIA clinical trial (Part C): repetitive nerve stimulation (CMAP decrement, nasalis muscle); format: in vivo, human; conditions: for RNS decrement responders / Patients with RNS decrement at baseline who recovered (less than 5% decrement): 3- and 5-hour measurements; for RNS decrement responders: placebo 0%
Description: (§1) For each subject, the study consisted of three study periods during which subjects received either a single dose of NMD670 400 mg, NMD670 1200 mg, or placebo with a 7-day washout period between visits. On these study visits, subjects were asked to refrain from their regular dose of pyridostigmine (if applicable) from 14 h before dosing until after the last pharmacodynamic measurement on Day 1 (see Table 13: Visit and Assessment Schedule). The cross-over design allowed intra-individual comparison of drug effects versus placebo (see FIG. 16). A balanced design was applied to control for first-order carry-over effects.
(§2) Part C was a double-blinded, placebo-controlled, three-way cross-over comparison of two single oral doses of NMD670 in men and women with stable symptomatic myasthenia gravis. 12 patients were enrolled. For each subject, the study consisted of three study periods during which subjects received either a single dose of NMD670 or placebo. On these study visits, subjects were asked to refrain from their regular dose of pyridostigmine (if applicable) for 14 hours before dosing. Single doses were administered in randomized order (400 mg free acid, 1200 mg free acid, or placebo p.o.), with a 7-day washout period between visits (FIG. 16). NMD670/placebo was administered with 240 ml of still water.
RNS uses trains of 10 supramaximal electrical stimuli at 3 and 5 Hz using a Medelec Synergy 11.0. The optimal stimulation site on the skin is identified using inframaximal stimuli, after which the limit of supramaximal intensity is established. The working intensity is about 130% of that threshold. RNS is performed on the facial nerve/nasalis muscle combination. Techniques have been described previously (Niks et al., Muscle & Nerve, 2003, 28(2):236-238; Ruys-Van Oeyen et al., Muscle & Nerve, 2002, 26(2):279-282; Schumm et al., Muscle & Nerve, 1984, 7(2):147-151).
Compound Muscle Action Potentials (CMAPs) were recorded from the nasalis muscle in response to nerve stimulation. Decrement refers to decline in CMAP amplitude during repeated stimulation and indicates neuromuscular transmission failure.

[3] = system: patients with myasthenia gravis; assay: Phase IIA clinical trial (Part C): hand grip strength (Jamar dynamometer); format: in vivo, human
Description: as §1, §2
Hand grip was evaluated with a Jamar hand grip dynamometer. An analysis of hand grip strength, an item of QMG score and therefore not an independent variable for the total score, was also performed (table 18).

[4] = system: soleus, EDL and diaphragm muscles from EAMG rats; assay: Force measurement in isolated intact nerve-muscle preparations; parameters: species or system rat; conditions: for Relative force area after addition of NMD670 (Initial area = 100): NMD670 between 20 and 40 μM
Source text: To allow for measurements of electrophysiological properties at the cellular level and for measurements of force, it was necessary to isolate nerve-muscle preparations from the rats. To this end, animals were sacrificed, and muscles were dissected out with 1 to 3 cm of intact nerve. The nerve-muscle preparations were then transferred to the organ baths used for the particular experiments (see below) and perfused with Normal Krebs-Ringer (NKR) solution, consisting of (in mM); 122 NaCl, 25 NaHCO3, 2.8 KCl, 1.2 KH2PO4, 1.2 MgSO4 1.27 CaCl2 and 5 D-glucose. This NKR solution was continuously gassed with a mixture of 95% oxygen and 5% CO2, to maintain a pH of approx. 7.4. In some experiments methyl-sulphate was used to replace Cl^− in the solution. All chemicals used were of analytical grade.
To determine whether enhanced neuromuscular transmission with CIC-1 inhibition could restore force in whole muscles from EAMG animals, experiments were conducted with soleus, extensor digitorum longus, and diaphragm muscles from EAMG rats. All muscles were mounted on force transducers (FORT 250, WPI instruments DE) in pre-warmed chambers (30° C.) containing 20 mL NKR each. The acquisition program Signal (version 6.4, Cambridge Electronics Design Ltd, Cambridge, UK) was used to control stimulation, delivered by an isolated stimulator (isostim 01D NPI electronics, DE) and for recording data via an analogue-digital converter (Micro 1401 Cambridge Electronics Design Ltd, Cambridge, UK). After equilibration in chambers, muscles were stretched to their optimal length and stimulated at a range of frequencies. For the duration of the experiment muscles were stimulated both directly and via the nerve at 12 V. This was accomplished by changing the stimulation pulse duration between 0.02 ms for nerve stimulation and 0.2 ms for direct stimulation of the muscle fibres. Muscles were stimulated every 10 min at 60 Hz for 1 second, either directly or via the nerve. To test for effect of NMD670 on force generation, different concentrations of NMD670 were added directly to the experimental chamber of the individual muscles.

[5] = male, po, 1600 mg, 1600 mg single oral dose, healthy male subjects, SD not given

C[C@H](Oc1ccc(Br)cc1-c1ccon1)C(=O)O [NMD670, (2S)-2-[4-bromo-2-(1,2-oxazol-3-yl)phenoxy]propanoic acid]
Cmax ([1]; female, po, 800 mg, 800 mg (female), single oral dose, read-out: Cmax (Mean ± SD, ng/mL)): 44400 ± 7480 ng/mL | Accumulation between single and multiple dosing ([1]; phase 1 FIH study): no meaningful accumulation | half-life ([1]; oral, mostly eliminated in 24 hours, read-out: Half-life (converted)): ~5 h | Cmax ([1]; male, po, 50 mg, 50 mg single oral dose, healthy male subjects, read-out: Cmax (Mean ± SD, ng/mL)): 1900 ± 580 ng/mL | AUC(0-inf) ([1]; male, po, 100 mg, 100 mg single oral dose, healthy male subjects): 18.5 ± 1.77 µg·h/mL | Cmax ([1]; male, po, 100 mg, 100 mg single oral dose, healthy male subjects, read-out: Cmax (Mean ± SD, ng/mL)): 3980 ± 1190 ng/mL | half-life ([1]; male, po, 100 mg, 100 mg single oral dose, healthy male subjects, read-out: T1/2 (mean ± SD, hr) (converted)): 5.07 ± 0.63 h | AUC(0-inf) ([1]; male, po, 200 mg, 200 mg single oral dose, healthy male subjects): 36.1 ± 5.03 µg·h/mL | Cmax ([1]; male, po, 200 mg, 200 mg single oral dose, healthy male subjects, read-out: Cmax (Mean ± SD, ng/mL)): 7780 ± 1130 ng/mL | half-life ([1]; male, po, 200 mg, 200 mg single oral dose, healthy male subjects, read-out: T1/2 (mean ± SD, hr) (converted)): 4.6 ± 0.67 h | AUC(0-inf) ([1]; male, po, 400 mg, 400 mg single oral dose, healthy male subjects): 87.7 ± 21.4 µg·h/mL | Cmax ([1]; male, po, 400 mg, 400 mg single oral dose, healthy male subjects, read-out: Cmax (Mean ± SD, ng/mL)): 20100 ± 7340 ng/mL | half-life ([1]; male, po, 400 mg, 400 mg single oral dose, healthy male subjects, read-out: T1/2 (mean ± SD, hr) (converted)): 4.68 ± 0.49 h | AUC(0-inf) ([1]; male, po, 800 mg, 800 mg fasted (male), single oral dose): 191 ± 31.5 µg·h/mL | Cmax ([1]; male, po, 800 mg, 800 mg fasted (male), single oral dose, read-out: Cmax (Mean ± SD, ng/mL)): 36700 ± 15400 ng/mL | AUC(0-inf) ([1]; male, po, 800 mg, 800 mg fed (male), single oral dose): 180 ± 27.9 µg·h/mL | Cmax ([1]; male, po, 800 mg, 800 mg fed (male), single oral dose, read-out: Cmax (Mean ± SD, ng/mL)): 37300 ± 7420 ng/mL | AUC(0-inf) ([1]; male, po, 1200 mg, 1200 mg single oral dose, healthy male subjects): 358 ± 176 µg·h/mL | Cmax ([1]; male, po, 1200 mg, 1200 mg single oral dose, healthy male subjects, read-out: Cmax (Mean ± SD, ng/mL)): 55000 ± 21700 ng/mL | half-life ([1]; male, po, 1200 mg, 1200 mg single oral dose, healthy male subjects, read-out: T1/2 (mean ± SD, hr) (converted)): 6.11 ± 1.28 h | Cmax [1, 5]: 123000 ng/mL | AUC(0-inf) [1, 5]: 826 µg·h/mL | half-life ([1]; male, po, 1600 mg, 1600 mg single oral dose, healthy male subjects, SD not given, read-out: T1/2 (mean ± SD, hr) (converted)): 4.48 h | NMD670 released from the tablets (Tablet dissolution): Not less than 80% | Treatment effect on CMAP decrement (continuous measurements) ([2]; 400 mg and 1200 mg single doses, nasalis muscle): No significant treatment effects and no trends of dose-dependent effects | RNS decrement responders ([2]; 400 mg arm): 83% | Patients with RNS decrement at baseline who recovered (less than 5% decrement) ([2]; 400 mg arm, of 6 subjects with decrement at baseline): 5 subjects | RNS decrement responders ([2]; 1200 mg arm): 33% | Patients with RNS decrement at baseline who recovered (less than 5% decrement) ([2]; 1200 mg arm, of 3 subjects with decrement at baseline): 1 subjects | Right-hand grip strength, CFB over placebo, Arithmetic mean ([3]; 400 mg versus placebo, 3-hour): 2.4 kg | Right-hand grip strength, CFB over placebo, LSM ([3]; 400 mg versus placebo, 3-hour, p = 0.05): 2.4 kg | Right-hand grip strength, CFB over placebo, Arithmetic mean ([3]; 400 mg versus placebo, 5-hour): 0.4 kg | Right-hand grip strength, CFB over placebo, LSM ([3]; 400 mg versus placebo, 5-hour, p = 0.76): 0.4 kg | Right-hand grip strength, CFB over placebo, LSM ([3]; 400 mg versus placebo, Overall, p = 0.19): 1.4 kg | Right-hand grip strength, CFB over placebo, Arithmetic mean ([3]; 1200 mg versus placebo, 3-hour): 2.9 kg | Right-hand grip strength, CFB over placebo, LSM ([3]; 1200 mg versus placebo, 3-hour, p = 0.02): 2.9 kg | Right-hand grip strength, CFB over placebo, Arithmetic mean ([3]; 1200 mg versus placebo, 5-hour): 2.8 kg | Right-hand grip strength, CFB over placebo, LSM ([3]; 1200 mg versus placebo, 5-hour, p = 0.03): 2.8 kg | Right-hand grip strength, CFB over placebo, LSM ([3]; 1200 mg versus placebo, Overall, p = 0.01): 2.8 kg | Change from baseline over placebo in hand grip strength, left and right hand ([3]; both doses (400 mg, 1200 mg), statistically significant for the right hand): improved; also recorded: numerically positive | Force from isolated soleus muscle ([4]; 20 μM NMD670, nerve-stimulated at 60 Hz, EAMG rats): could be restored | Relative force area after addition of NMD670 (Initial area = 100) ([4]; Diaphragm (12) from EAMG rats): 120.2 ± 5.04 | Relative force area after addition of NMD670 (Initial area = 100) ([4]; EDL (14) from EAMG rats): 235.1 ± 25.0 | Force generation in isolated soleus, EDL and diaphragm muscles compared with muscles from healthy animals ([4]; NMD670 20 μM or between 20 and 40 μM, EAMG animals): restored force generation | Relative force area after addition of NMD670 (Initial area = 100) ([4]; Soleus (14) from EAMG rats): 199 ± 17.1
